Measured values as given in patent US20250312499A1, “KISSPEPTIN RECEPTOR (KISS1R) TARGETED THERAPEUTICS AND USES THEREOF” (priority 2024, published 2025).
Numbered stars: 1 amine (or outer) side, 2 acyl side, 3 side chain; on linkers, the order of the positions; unused ones are H or OH. Square brackets hold non-standard residues; d marks the D form. Peptide text beside a SMILES is read from it. * marks the point of attachment. DOTA = O=C(O)CN1CCN(CC(=O)O)CCN(CC(=O)*)CCN(CC(=O)O)CC1; Gly(N-(3-F-4-Me-benzyl)) = Cc1ccc(CNCC(=O)*)cc1F; Gly(Nα-4-MeO-benzyl) = COc1ccc(CNCC(=O)*)cc1; X4 = O=C(c1ccc(-c2ccccc2OCCCN[*:1])cc1)[*:2]; Api(1-amidino) = N=C(N)N1CCC(N)(C(=O)O)CC1; X14 = O=C([C@H]1CC[C@@H](CN[*:1])CC1)[*:2]; Hydrocinnamoyl(4-I) = O=C(CCc1ccc(I)cc1)*; Phe(4-CN) = N#Cc1ccc(C[C@H](N)C(=O)O)cc1; X3 = CNC(=N)N1CCC(N[*:1])(C(=O)[*:2])CC1; Phe(3-F) = N[C@@H](Cc1cccc(F)c1)C(=O)O; X9 = O=C(CCOCCOCCOCCOCCOCCOCCOCCOCCO)*; d2Nal = N[C@H](Cc1ccc2ccccc2c1)C(=O)O; NBzl(4-I)Gly = O=C(O)CNCc1ccc(I)cc1; X1 = O=C(CN1CCC(N[*:1])CC1)[*:2]; dCya = N[C@H](CS(=O)(=O)O)C(=O)O; 4Pal = N[C@@H](Cc1ccncc1)C(=O)O; d4Pal = N[C@H](Cc1ccncc1)C(=O)O; Cha = N[C@@H](CC1CCCCC1)C(=O)O; 4Amb = NCc1ccc(C(=O)O)cc1; Api = NC1(C(=O)O)CCNCC1; PEG2 = NCCOCCOCCC(=O)O; Ahx = NCCCCCC(=O)O; azaGly = NNC(=O)O

These molecules were tested against human kisspeptin receptor (Homo sapiens (Human), UniProt Q969F8) (assay: Human KISS1R binding assay (membrane competition binding)). Conditions: 90 min at room temperature; competition with 0.2 nM [125I]-metastin (45-54); Flp-In T-Rex 293 kisspeptin membranes; metal complexes nonradioactive Ga, In, Lu; read-out: hKiSSR Binding Ki (90 min).
Procedure, shortened: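 Membranes from tetracycline-induced (48 h) Flp-In T-Rex 293 cells expressing receptor, 5–10 μg, incubated 90 min at room temperature with 0.2 nM [125I]-metastin (45-54) and competitor (typically 0–10,000 nM) in Tris/Mg/Ca/EGTA/0.1% BSA, pH 7.4. Filtration, washing, counting; Ki by non-linear regression.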

human kisspeptin receptor, sequence (Q969F8 whole entry): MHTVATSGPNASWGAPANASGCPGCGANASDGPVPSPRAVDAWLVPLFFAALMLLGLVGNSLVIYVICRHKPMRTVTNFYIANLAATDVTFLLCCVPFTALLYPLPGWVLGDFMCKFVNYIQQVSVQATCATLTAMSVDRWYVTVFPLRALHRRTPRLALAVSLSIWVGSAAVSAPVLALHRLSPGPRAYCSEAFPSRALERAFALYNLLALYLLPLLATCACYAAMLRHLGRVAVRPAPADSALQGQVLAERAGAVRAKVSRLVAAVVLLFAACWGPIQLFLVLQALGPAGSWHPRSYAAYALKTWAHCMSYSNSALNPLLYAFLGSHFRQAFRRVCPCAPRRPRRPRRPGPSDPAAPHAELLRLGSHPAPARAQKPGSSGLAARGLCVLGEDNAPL

Row | SMILES | Ki
1 | Cc1ccc(CNCC(=O)N2CCC(NC(=O)[C@H](CC(C)C)NC(=O)NNC(=O)[C@H](Cc3ccccc3)NC(=O)CN3CCC(NC(=O)CN4CCN(CC(=O)O)CCN(CC(=O)O)CCN(CC(=O)O)CC4)CC3)(C(=O)N[C@@H](Cc3ccccc3)C(N)=O)CC2)cc1F [Compound 245] ({DOTA}-[X1]F[azaGly]L[Api](Gly(N-(3-F-4-Me-benzyl)))F-NH2) | < 10 nM
2 | CC(C)C[C@H](NC(=O)NNC(=O)[C@H](Cc1ccccc1)NC(=O)[C@@H](NC(=O)[C@H](CC(N)=O)NC(=O)[C@@H](Cc1ccc2ccccc2c1)NC(=O)[C@@H](Cc1ccc(O)cc1)NC(=O)CCCCCNC(=O)CN1CCN(CC(=O)O)CCN(CC(=O)O)CCN(CC(=O)O)CC1)[C@@H](C)O)C(=O)NC1(C(=O)N[C@H](Cc2c[nH]c3ccccc23)C(N)=O)CCN(C(=O)CNCc2ccc(I)cc2)CC1 [Compound 371] ({DOTA-Ahx}-[dY][d2Nal]NTF[azaGly]L[Api](NBzl(4-I)Gly)[dW]-NH2) | < 10 nM
3 | Cc1ccc(CNCC(=O)N2CCC(NC(=O)[C@H](CC(C)C)NC(=O)NNC(=O)[C@H](Cc3ccccc3)NC(=O)CN3CCC(NC(=O)CN4CCN(CC(=O)O)CCN(CC(=O)O)CCN(CC(=O)O)CC4)CC3)(C(=O)N[C@@H](Cc3ccc(C#N)cc3)C(N)=O)CC2)cc1F [Compound 244] ({DOTA}-[X1]F[azaGly]L[Api](Gly(N-(3-F-4-Me-benzyl)))[Phe(4-CN)]-NH2) | < 10 nM
4 | CC(C)C[C@H](NC(=O)NNC(=O)[C@H](Cc1ccccc1)NC(=O)[C@@H](NC(=O)[C@H](CC(N)=O)NC(=O)[C@@H](Cc1ccc2ccccc2c1)NC(=O)[C@@H](Cc1ccc(O)cc1)NC(=O)CCOCCOCCNC(=O)CCc1ccc(I)cc1)[C@@H](C)O)C(=O)NC1(C(=O)N[C@@H](Cc2ccccc2)C(N)=O)CCN(C(=N)N)CC1 [Compound 396] ({Hydrocinnamoyl(4-I)-PEG2}-[dY][d2Nal]NTF[azaGly]L[Api(1-amidino)]F-NH2) | < 10 nM
5 | CNC(=N)N1CCC(NC(=O)[C@H](CC(C)C)NC(=O)NNC(=O)[C@H](Cc2ccccc2)NC(=O)CCCCCNC(=O)CN2CCN(CC(=O)O)CCN(CC(=O)O)CCN(CC(=O)O)CC2)(C(=O)N[C@@H](Cc2c[nH]c3ccccc23)C(N)=O)CC1 [Compound 189] ({DOTA-Ahx}-F[azaGly]L[X3]W-NH2) | > 100 nM
6 | Cc1ccc(CNCC(=O)N2CCC(NC(=O)[C@H](CC(C)C)NC(=O)NNC(=O)c3ccc(-c4ccccc4OCCCNC(=O)CN4CCC(NC(=O)CN5CCN(CC(=O)O)CCN(CC(=O)O)CCN(CC(=O)O)CC5)CC4)cc3)(C(=O)N[C@@H](Cc3c[nH]c4ccccc34)C(N)=O)CC2)cc1F [Compound 217] ({DOTA}-[X1][X4][azaGly]L[Api](Gly(N-(3-F-4-Me-benzyl)))W-NH2) | < 10 nM
7 | Cc1ccc(CNCC(=O)N2CCC(NC(=O)c3cc(OCCNC(=O)[C@H](Cc4ccccc4)NC(=O)CCCCCNC(=O)CN4CCN(CC(=O)O)CCN(CC(=O)O)CCN(CC(=O)O)CC4)c(-c4ccccc4)cc3C)(C(=O)N[C@@H](Cc3c[nH]c4ccccc34)C(N)=O)CC2)cc1F [Compound 282] | > 100 nM
8 | Cc1ccc(CNCC(=O)N2CCC(NC(=O)[C@H](CC(C)C)NC(=O)NNC(=O)[C@H](CC3CCCCC3)NC(=O)c3ccc(CNC(=O)CN4CCN(CC(=O)O)CCN(CC(=O)O)CCN(CC(=O)O)CC4)cc3)(C(=O)N[C@@H](Cc3c[nH]c4ccccc34)C(N)=O)CC2)cc1F [Compound 261] ({DOTA-4Amb}-[Cha][azaGly]L[Api](Gly(N-(3-F-4-Me-benzyl)))W-NH2) | < 10 nM
9 | Cc1ccc(CNCC(=O)N2CCC(NC(=O)[C@H](CC(C)C)NC(=O)NNC(=O)c3ccc(-c4ccccc4OCCCNC(=O)CCCCCNC(=O)CN4CCN(CC(=O)O)CCN(CC(=O)O)CCN(CC(=O)O)CC4)cc3)(C(=O)N[C@@H](Cc3c[nH]c4ccccc34)C(N)=O)CC2)cc1F [Compound 297] ({DOTA-Ahx}-[X4][azaGly]L[Api](Gly(N-(3-F-4-Me-benzyl)))W-NH2) | < 10 nM
10 | Cc1ccc(CNCC(=O)N2CCC(NC(=O)[C@H](CC(C)C)NC(=O)NNC(=O)[C@H](Cc3ccccc3)NC(=O)c3ccc(CNC(=O)CCCCCNC(=O)CN4CCN(CC(=O)O)CCN(CC(=O)O)CCN(CC(=O)O)CC4)cc3)(C(=O)N[C@@H](Cc3c[nH]c4ccccc34)C(N)=O)CC2)cc1F [Compound 22] ({DOTA-Ahx-4Amb}-F[azaGly]L[Api](Gly(N-(3-F-4-Me-benzyl)))W-NH2) | < 10 nM

The remaining lines, values ahead:

Row | Ki | SMILES
11 | < 10 nM | Cc1ccc(CNCC(=O)N2CCC(NC(=O)[C@H](CC(C)C)NC(=O)NNC(=O)[C@H](Cc3ccccc3)NC(=O)[C@@H](NC(=O)[C@H](CC(N)=O)NC(=O)[C@@H](CCC(=O)O)NC(=O)c3ccc(CNC(=O)CN4CCN(CC(=O)O)CCN(CC(=O)O)CCN(CC(=O)O)CC4)cc3)[C@@H](C)O)(C(=O)N[C@@H](Cc3ccc(O)cc3)C(N)=O)CC2)cc1F [Compound 206] ({DOTA-4Amb}-[dE]NTF[azaGly]L[Api](Gly(N-(3-F-4-Me-benzyl)))Y-NH2)
12 | < 10 nM | Cc1ccc(CNCC(=O)N2CCC(NC(=O)[C@H](CC(C)C)NC(=O)NNC(=O)[C@H](Cc3ccccc3)NC(=O)[C@@H](NC(=O)[C@H](CC(N)=O)NC(=O)[C@H](CCCCNC(=O)CN3CCN(CC(=O)O)CCN(CC(=O)O)CCN(CC(=O)O)CC3)NC(=O)CCOCCOCCOCCOCCOCCOCCOCCOCCO)[C@@H](C)O)(C(=O)N[C@@H](Cc3ccncc3)C(N)=O)CC2)cc1F [Compound 256] (X9-K(DOTA)NTF[azaGly]L[Api](Gly(N-(3-F-4-Me-benzyl)))[4Pal]-NH2)
13 | < 10 nM | COc1ccc(CNCC(=O)N2CCC(NC(=O)[C@H](CC(C)C)NC(=O)NNC(=O)[C@H](Cc3ccccc3)NC(=O)[C@@H](NC(=O)[C@H](CC(N)=O)NC(=O)[C@@H](Cc3c[nH]c4ccccc34)NC(=O)[C@@H](Cc3ccc(O)cc3)NC(=O)CCCCCNC(=O)CN3CCN(CC(=O)O)CCN(CC(=O)O)CCN(CC(=O)O)CC3)[C@@H](C)O)(C(=O)N[C@@H](Cc3ccccc3)C(N)=O)CC2)cc1 [Compound 140] ({DOTA-Ahx}-[dY][dW]NTF[azaGly]L[Api](Gly(Nα-4-MeO-benzyl))F-NH2)
14 | < 10 nM | Cc1ccc(CNCC(=O)N2CCC(NC(=O)[C@H](CC(C)C)NC(=O)NNC(=O)[C@H](Cc3ccccc3)NC(=O)CCCCCNC(=O)[C@@H](Cc3ccncc3)NC(=O)[C@@H](Cc3ccc(O)cc3)NC(=O)CN3CCN(CC(=O)O)CCN(CC(=O)O)CCN(CC(=O)O)CC3)(C(=O)N[C@@H](Cc3c[nH]c4ccccc34)C(N)=O)CC2)cc1F [Compound 186] ({DOTA}-[dY][d4Pal][Ahx]F[azaGly]L[Api](Gly(N-(3-F-4-Me-benzyl)))W-NH2)
15 | < 10 nM | Cc1ccc(CNCC(=O)N2CCC(NC(=O)[C@H](CC(C)C)NC(=O)NNC(=O)[C@H](Cc3ccccc3)NC(=O)CCCCCNC(=O)[C@@H](CS(=O)(=O)O)NC(=O)[C@@H](CS(=O)(=O)O)NC(=O)CN3CCN(CC(=O)O)CCN(CC(=O)O)CCN(CC(=O)O)CC3)(C(=O)N[C@@H](Cc3c[nH]c4ccccc34)C(N)=O)CC2)cc1F [Compound 130] ({DOTA}-[dCya][dCya][Ahx]F[azaGly]L[Api](Gly(N-(3-F-4-Me-benzyl)))W-NH2)
16 | < 10 nM | CC(C)C[C@H](NC(=O)NNC(=O)[C@H](Cc1ccccc1)NC(=O)[C@@H](NC(=O)[C@H](CC(N)=O)NC(=O)[C@H](CCCCNC(=O)CN1CCN(CC(=O)O)CCN(CC(=O)O)CCN(CC(=O)O)CC1)NC(=O)[C@@H](Cc1ccc(O)cc1)NC(=O)CCOCCOCCNC(=O)CCc1ccc(I)cc1)[C@@H](C)O)C(=O)NC1(C(=O)N[C@@H](Cc2ccccc2)C(N)=O)CCN(C(=N)N)CC1 [Compound 323] ({Hydrocinnamoyl(4-I)-PEG2}-[dY]K(DOTA)NTF[azaGly]L[Api(1-amidino)]F-NH2)
17 | < 10 nM | Cc1ccc(CNCC(=O)N2CCC(NC(=O)[C@H](CC(C)C)NC(=O)NNC(=O)[C@H](Cc3cccc(F)c3)NC(=O)[C@@H](NC(=O)[C@H](CC(N)=O)NC(=O)[C@H](CCC(=O)O)NC(=O)[C@H]3CC[C@@H](CNC(=O)CN4CCN(CC(=O)O)CCN(CC(=O)O)CCN(CC(=O)O)CC4)CC3)[C@@H](C)O)(C(=O)N[C@@H](Cc3ccncc3)C(N)=O)CC2)cc1F [Compound 170] ({DOTA}-[X14]ENT[Phe(3-F)][azaGly]L[Api](Gly(N-(3-F-4-Me-benzyl)))[4Pal]-NH2)
18 | < 10 nM | Cc1ccc(CNCC(=O)N2CCC(NC(=O)[C@H](CC(C)C)NC(=O)NNC(=O)[C@H](Cc3ccccc3)NC(=O)[C@@H](NC(=O)[C@H](CC(N)=O)NC(=O)[C@@H](Cc3c[nH]c4ccccc34)NC(=O)[C@H](CC(N)=O)NC(=O)[C@@H](Cc3ccc(O)cc3)NC(=O)CCCCCNC(=O)CN3CCN(CC(=O)O)CCN(CC(=O)O)CCN(CC(=O)O)CC3)[C@@H](C)O)(C(=O)N[C@@H](Cc3ccncc3)C(N)=O)CC2)cc1F [Compound 106] ({DOTA-Ahx}-[dY]N[dW]NTF[azaGly]L[Api](Gly(N-(3-F-4-Me-benzyl)))[4Pal]-NH2)
19 | < 10 nM | Cc1ccc(CNCC(=O)N2CCC(NC(=O)[C@H](CC(C)C)NC(=O)NNC(=O)[C@H](Cc3ccccc3)NC(=O)[C@H](C)NC(=O)[C@H](CC(N)=O)NC(=O)[C@@H](Cc3c[nH]c4ccccc34)NC(=O)[C@@H](Cc3ccc(O)cc3)NC(=O)CCCCCNC(=O)CN3CCN(CC(=O)O)CCN(CC(=O)O)CCN(CC(=O)O)CC3)(C(=O)N[C@@H](CC(C)C)C(N)=O)CC2)cc1F [Compound 113] ({DOTA-Ahx}-[dY][dW]NAF[azaGly]L[Api](Gly(N-(3-F-4-Me-benzyl)))L-NH2)
20 | < 10 nM | Cc1ccc(CNCC(=O)N2CCC(NC(=O)[C@H](CC(C)C)NC(=O)NNC(=O)[C@H](Cc3ccccc3)NC(=O)[C@@H](NC(=O)[C@H](CC(N)=O)NC(=O)[C@@H](Cc3c[nH]c4ccccc34)NC(=O)[C@@H](Cc3ccc(O)cc3)NC(=O)CCCCCNC(=O)CN3CCN(CC(=O)O)CCN(CC(=O)O)CCN(CC(=O)O)CC3)[C@@H](C)O)(C(=O)N[C@H](Cc3c[nH]c4ccccc34)C(N)=O)CC2)cc1F [Compound 383] ({DOTA-Ahx}-[dY][dW]NTF[azaGly]L[Api](Gly(N-(3-F-4-Me-benzyl)))[dW]-NH2)
